Each structure is given as a SMILES string.

What all share (experiment): Antimicrobial activity, MIC determination
Common to all, as to format: cell-based

Experiment [1] concerns Bacillus subtilis ATCC 6633. Conditions: B. subtilis; 24-h incubation, 37°C. Here is the method:
(§1) The in vitro antimicrobial activity of the compounds was evaluated by determining the minimum inhibitory concentration (MIC) against the Gram-positive microorganisms Staphylococcus aureus ATCC 6538 (S. aureus) and Bacillus subtilis ATCC 6633 (B. subtilis) and the Gram-negative microorganism Xanthomonas campestris ATCC 1395 (X. campestris). The affinity of the compounds for bovine serum albumin (BSA) and human serum albumin (HSA) was studied by fluorescence emission spectroscopy, and the corresponding binding constants were determined. Furthermore, the interaction of the compounds with calf-thymus DNA (CT DNA) was investigated to determine the possible mode of interaction by the following methods: (i) UV–vis spectroscopy (where the DNA-binding constants of the complexes (Kb) were also determined), (ii) DNA-viscosity measurements, (iii) cyclic voltammetry and (iv) competitive DNA-binding studies with the classic intercalator ethidium bromide (EB) performed by fluorescence emission spectroscopy.
(§2) Three bacterial strains, one Gram(−) (X. campestris) and two Gram(+) (S. aureus and B. subtilis), were used in order to test the antimicrobial activity of the compounds.
(§3) The antimicrobial activity of the compounds was evaluated b y determining their respective MIC values towards one Gram–( –) (Xanthomonas campestris ATCC 1395 (X. campestris)) and two Gram–(+) (Staphylococcus aureus ATCC 6538 (S. aureus) and Bacillus subtilis ATCC 6633 (B. subtilis)) bacterial species. Cultures of these microbial strains were grown on a rich selective agar medium and stored at 4°C. The selective media used were Nutrient Agar or Broth for B. subtilis and S. aureus, and Yeast Mold Agar or Broth for X. campestris . Cells picked from the surface of the stored cultures were used to initiate liquid pre–cultures of the same selective medium at an initial turbidity of roughl y 1 McFarland unit. Pre–cultures were incubated for 24 h in a rotar y sh aking incubator and subsequently the y were used to inoculate the test cultures used for the determination of MIC at an initial turbidity of 0.5 McFarland units. The test cultures consisted of Mueller–Hinton broth (Deben Diagnostics Ltd) containing different concentrations of the compounds. Different concentrations were achieved as follows: the compounds were freshly dissolved in DMSO to a concentration of 1 mg/mL and they were diluted with DMSO, using the method of progressive double dilution. Therefore, working solutions with decreasing concentrations of the compounds under investigation were achieved. The working solutions were subsequently diluted to the final desired concentration b y addition to the growth medium at a proportion of 2:98. MIC values were determined as the lowest concentrations of the tested compounds that inhibited visible growth of each respective organism after a 24–h incubation [ S1]. Bacterial growth was determined b y measuring the turbidit y of appropriatel y diluted cultures at 600 nm with reference to equall y diluted sterile growth medium and the inhibition achieved was calculated b y comparing the turbidit y of each culture to the average of the turbidit y of three non–inhibited cultures. All test cultures were grown in triplicates and for the determination of MIC, growth had to be inhibited in at least two cultures of the triplicate. In cubation temperatur e at all stages was 37°C ex cept for X. campestris t h at was cultivated at 28°C [S2]. […]
(§4) The fluorescence spectra of the compounds were recorded under the same experimental conditions and presented a low–intensity emission band in the region 405–410 nm .

Experiment [2] deals with Staphylococcus aureus ATCC 6538. Conditions: S. aureus; 24-h incubation, 37°C. Here is the method:
as §1, §2, §3, §4

Experiment [3] concerns Xanthomonas campestris ATCC 1395. Conditions: X. campestris; 24-h incubation, 28°C. Here is the method: as §1, §2, §3, §4

Take `CN1CCN(c2c(F)cc3c(=O)c(C(=O)[O-])cn(CCF)c3c2F)CC1.CN1CCN(c2c(F)cc3c(=O)c(C(=O)[O-])cn(CCF)c3c2F)CC1.[Co+2].c1cnc2c(c1)ccc1cccnc12` [complex 17, [Co(flrx)2(phen)]]: the MIC (commonly the lowest concentration that inhibits growth of the organism) in experiment [1] amounted to 8 µg/mL; in experiment [2] it was 8 µg/mL; in experiment [3], 16 µg/mL. In addition, the “MIC (values in parentheses)” value was found to be 8.0 µM in experiment [1], 8.0 µM in experiment [2] and 16.0 µM in experiment [3].
Turning to `CN1CCN(c2c(F)cc3c(=O)c(C(=O)[O-])cn(CCF)c3c2F)CC1.CN1CCN(c2c(F)cc3c(=O)c(C(=O)[O-])cn(CCF)c3c2F)CC1.[Mn+2].c1ccc(Nc2ccccn2)nc1` [complex 10, [Mn(flrx)2(bipyam)]], the MIC is 16 µg/mL in experiment [1], 16 µg/mL in experiment [2] and above 32 µg/mL in experiment [3]. Further, the entries for the “MIC (values in parentheses)” value in experiment [1], in experiment [2] and in experiment [3] were 16.6 µM, 16.6 µM and above 33.2 µM, respectively.
As for `CN1CCN(c2c(F)cc3c(=O)c(C(=O)[O-])cn(CCF)c3c2F)CC1.CN1CCN(c2c(F)cc3c(=O)c(C(=O)[O-])cn(CCF)c3c2F)CC1.[Co+2].c1ccc(-c2ccccn2)nc1` [complex 15, [Co(flrx)2(bipy)]], the minimum inhibitory concentration (MIC) in experiment [1] amounted to 8 µg/mL; in experiment [2] it was 4 µg/mL; in experiment [3], 16 µg/mL. Also, the “MIC (values in parentheses)” value came to 8.4 µM in experiment [1], 4.2 µM in experiment [2] and 16.8 µM in experiment [3].
As to `CN1CCN(c2c(F)cc3c(=O)c(C(=O)[O-])cn(CCF)c3c2F)CC1.CN1CCN(c2c(F)cc3c(=O)c(C(=O)[O-])cn(CCF)c3c2F)CC1.O.O.[Mn+2]` [complex 2, [Mn(flrx)2(H2O)2]], the MIC in experiment [1] turned out to be 4 µg/mL; in experiment [2], 4 µg/mL; in experiment [3], 16 µg/mL. Further, the results for the “MIC (values in parentheses)” value in experiment [1], in experiment [2] and in experiment [3] were 4.7 µM, 4.7 µM and 18.7 µM, respectively.
For `CN1CCN(c2c(F)cc3c(=O)c(C(=O)[O-])cn(CCF)c3c2F)CC1.CN1CCN(c2c(F)cc3c(=O)c(C(=O)[O-])cn(CCF)c3c2F)CC1.[Ni+2].c1cnc2c(c1)ccc1cccnc12` [complex 19, [Ni(flrx)2(phen)]], the MIC in experiment [1] worked out at 8 µg/mL; in experiment [2] it was 8 µg/mL; in experiment [3] it was 16 µg/mL. Further, the “MIC (values in parentheses)” value in experiment [1] came out at 8.2 µM; in experiment [2], 8.2 µM; in experiment [3], 16.4 µM.
With `CN1CCN(c2c(F)cc3c(=O)c(C(=O)[O-])cn(CCF)c3c2F)CC1.CN1CCN(c2c(F)cc3c(=O)c(C(=O)[O-])cn(CCF)c3c2F)CC1.[Co+2].c1ccc(Nc2ccccn2)nc1` [complex 16, [Co(flrx)2(bipyam)]], the values for the MIC in experiment [1], in experiment [2] and in experiment [3] were 8 µg/mL, 8 µg/mL and 16 µg/mL, respectively. The figures for the “MIC (values in parentheses)” value in experiment [1], in experiment [2] and in experiment [3] were 8.3 µM, 8.3 µM and 16.5 µM, respectively.
Turning to `CN1CCN(c2c(F)cc3c(=O)c(C(=O)[O-])cn(CCF)c3c2F)CC1.CN1CCN(c2c(F)cc3c(=O)c(C(=O)[O-])cn(CCF)c3c2F)CC1.[Mn+2].c1cnc2c(c1)ccc1cccnc12` [complex 11, [Mn(flrx)2(phen)]], the MIC was found to be 8 µg/mL in experiment [1], 8 µg/mL in experiment [2] and 16 µg/mL in experiment [3]. The entries for the “MIC (values in parentheses)” value in experiment [1], in experiment [2] and in experiment [3] were 8.2 µM, 8.2 µM and 16.4 µM, respectively.
Regarding `CN1CCN(c2c(F)cc3c(=O)c(C(=O)[O-])cn(CCF)c3c2F)CC1.CN1CCN(c2c(F)cc3c(=O)c(C(=O)[O-])cn(CCF)c3c2F)CC1.[Mn+2].c1ccc(-c2ccccn2)nc1` [complex 9, [Mn(flrx)2(bipy)]], the MIC turned out to be 8 µg/mL in experiment [1], 8 µg/mL in experiment [2] and 16 µg/mL in experiment [3]. Further, the “MIC (values in parentheses)” value was found to be 8.4 µM in experiment [1], 8.4 µM in experiment [2] and 16.9 µM in experiment [3].
As to `CN1CCN(c2c(F)cc3c(=O)c(C(=O)[O-])cn(CCF)c3c2F)CC1.CN1CCN(c2c(F)cc3c(=O)c(C(=O)[O-])cn(CCF)c3c2F)CC1.[Cu+2]` [complex 1, [Cu(flrx)2]], the MIC in experiment [1], in experiment [2] and in experiment [3] was 8 µg/mL throughout. In addition, the “MIC (values in parentheses)” value in experiment [1], in experiment [2] and in experiment [3] was 10.0 µM each time.
Take `CN1CCN(c2c(F)cc3c(=O)c(C(=O)[O-])cn(CCF)c3c2F)CC1.[Cl-].[Cu+2].c1ccc(-c2ccccn2)nc1` [complex 6, [Cu(flrx)(bipy)Cl]]: the values for the MIC in experiment [1], in experiment [2] and in experiment [3] were 8 µg/mL, 4 µg/mL and 8 µg/mL, respectively. Moreover, the entries for the “MIC (values in parentheses)” value in experiment [1], in experiment [2] and in experiment [3] were 12.8 µM, 6.4 µM and 12.8 µM, respectively.
In the case of `CN1CCN(c2c(F)cc3c(=O)c(C(=O)[O-])cn(CCF)c3c2F)CC1.[Cl-].[Cu+2].c1cnc2c(c1)ccc1cccnc12` [complex 8, [Cu(flrx)(phen)Cl]], the MIC in experiment [1], in experiment [2] and in experiment [3] was 8 µg/mL throughout. Moreover, the “MIC (values in parentheses)” value in experiment [1], in experiment [2] and in experiment [3] was 12.3 µM in each case.
With `CN1CCN(c2c(F)cc3c(=O)c(C(=O)[O-])cn(CCF)c3c2F)CC1.[Cl-].[Cu+2].c1ccc(Nc2ccccn2)nc1` [complex 7, [Cu(flrx)(bipyam)Cl]], the MIC in experiment [1] is above 16 µg/mL; in experiment [2], above 16 µg/mL; in experiment [3], above 32 µg/mL. Further, the results for the “MIC (values in parentheses)” value in experiment [1], in experiment [2] and in experiment [3] were above 25.0 µM, above 25.0 µM and above 50.0 µM, respectively.
Consider `CN1CCN(c2c(F)cc3c(=O)c(C(=O)[O-])cn(CCF)c3c2F)CC1.CN1CCN(c2c(F)cc3c(=O)c(C(=O)[O-])cn(CCF)c3c2F)CC1.CO.CO.[Ni+2]` [complex 5, [Ni(flrx)2(MeOH)2]], for which the MIC in experiment [1] is 4 µg/mL; in experiment [2] it was 4 µg/mL; in experiment [3], 16 µg/mL. Besides, the entries for the “MIC (values in parentheses)” value in experiment [1], in experiment [2] and in experiment [3] were 4.6 µM, 4.6 µM and 18.6 µM, respectively.
For `CN1CCN(c2c(F)cc3c(=O)c(C(=O)[O-])cn(CCF)c3c2F)CC1.CN1CCN(c2c(F)cc3c(=O)c(C(=O)[O-])cn(CCF)c3c2F)CC1.CO.CO.[Co+2]` [complex 4, [Co(flrx)2(MeOH)2]], the MIC in experiment [1] is 8 µg/mL; in experiment [2], 4 µg/mL; in experiment [3], 16 µg/mL. The “MIC (values in parentheses)” value in experiment [1] amounted to 9.3 µM; in experiment [2], 4.6 µM; in experiment [3], 18.6 µM.
`CN1CCN(c2c(F)cc3c(=O)c(C(=O)[O-])cn(CCF)c3c2F)CC1.CN1CCN(c2c(F)cc3c(=O)c(C(=O)[O-])cn(CCF)c3c2F)CC1.[Ni+2].c1ccc(Nc2ccccn2)nc1` [complex 18, [Ni(flrx)2(bipyam)]]: the figures for the MIC in experiment [1], in experiment [2] and in experiment [3] were 8 µg/mL, 8 µg/mL and 32 µg/mL, respectively. The “MIC (values in parentheses)” value in experiment [1] amounted to 8.3 µM; in experiment [2], 8.3 µM; in experiment [3], 33.0 µM.

These data come from article PMC9144902, “Metal(II) Complexes of the Fluoroquinolone Fleroxacin: Synthesis, Characterization and Biological Profile” (Pharmaceutics, 2022).
